In patent publication US5994336A, “Method of inhibiting proliferation of cells by administering an aminosterol compound” (priority 1995, dated 1999):
“Also recorded” adds a separate entry of the source.

Columns and labels:
[1] = tested on: bacteria, fungi and protozoa; settings: cited from earlier work
[2] = tested on: human foreskin fibroblasts; assay: Growth inhibition in vitro (absorbance at 600 nm); format: cell-based; settings: 10 μg/ml; FIG. 3C
human NHE1 = assay: NHE1 inhibition, internal pH (BCECF-AM) in transfected PS120 fibroblasts; format: cell-based; settings: 5 μg/ml; FIG. 2B
Procedure: (§1) PS120 fibroblasts transfected with rabbit or human NHE1 were grown as described above.

rabbit NHE1 = assay: as above; format: cell-based; settings: 5 μg/ml; FIG. 2A
Procedure: as §1

[3] = tested on: PHA-stimulated human lymphocytes; assay: Inhibition of mitogen (PHA)-stimulated growth of human T-cells; format: cell-based
Description: Results are tabulated below.

[4] = tested on: Xenopus tadpole, stage 59-60; assay: Tadpole assay; format: in vivo, Xenopus laevis; settings: 10 μg/ml; for pharmacological response in tadpole (words): stage 59-60
Description: For example, substances that destroy all of the animal's epithelium, both adult and embryonic, could be regarded as toxic.
The volume of liquid is sufficient for the animal to swim freely and drink from the solution. […] If the volume of liquid is not sufficient to permit oral intake, the effects that are observed would result from absorption through the surface epithelium.
In another embodiment of this assay, a solution of a compound in water can be injected directly into the abdomen of the animal using standard techniques.
After an amount of time, typically about 60 minutes, the occlusion of blood flow through capillaries in the tadpole's tail are observed under an inverted microscope at a magnification of roughly 100×.
In the assay, each of the steroids was dissolved in 100 ml of distilled water at a concentration of 10 μg/ml. Stage 59-60 Xenopus tadpoles were introduced and evaluated by light microscopy and gross observation 1 hour later.

[5] = listed as Compound 1256 (Squalamine)

Compound: CC(C)[C@@H](CC[C@@H](C)[C@H]1CC[C@H]2[C@@H]3[C@H](O)C[C@H]4C[C@@H](NCCCNCCCCN)CC[C@]4(C)[C@H]3CC[C@]12C)OS(=O)(=O)O [squalamine]
- antibiotic spectrum [1]: broad-spectrum antibiotic, killing bacteria, fungi and protozoa
- growth of fibroblast line [2]: no effect
- inhibitory activity against human NHE1 (human NHE1): no inhibitory activity
- inhibitory activity against rabbit NHE1 (rabbit NHE1): no inhibitory activity
- inhibition of blast transformation [3]: Some effect
- tissues or functions not affected in tadpole [4]: unaltered blood flow through the fine capillaries of the hands and feet
- pharmacological response in tadpole (words) [4]: blood flow through the capillaries of the tail shut down; also recorded: common vascular occlusive effect
- pharmacological response in tadpole (words) [4, 5]: Vascular occlusion in fine capillaries of tail
- tissues or functions not affected in tadpole [4, 5]: No effect on vascular flow through hands or feet
